# Bridge positions count the residues as written; N and C are the ends. Peptide text beside a SMILES is read from it. * marks the point of attachment. X1 = CC/C=C\C/C=C\C/C=C\C/C=C\C/C=C\C/C=C\CCC(=O)*
# Legend:
# MDA-MB-231 cell line = conditions: MDA-MB-231, FACS
# [1] = test system: breast cancer (MDA-MB-231) and liver cancer (HepG2) cell lines
# MDA-MB-231 cells = conditions: western blotting of apoptosis-related proteins, electron microscopy, Annexin V/PI
# [2] = test system: MDA-MB-231 and HepG2 cell lines
# [3] = Stability in serum (in vitro) by HPLC; type: in vitro ADME
# Source text: (§1) The following methods were used to confirm the stability and safety of the cancer cell-specific cell death-inducing ACP52C. […] It is presumed that ACP52C is subjected to renal secretion rather than degradation by proteases, since ACP52C (a peptide consisted of 15 amino acids) is short enough to be easily secreted from the kidneys.
# [4] = Half-life in blood (in vivo) by HPLC; conditions: read-out: time to degradation to half in blood (in vivo) (converted)
# Source text: as §1
# [5] = Live imaging of Cy5-labeled peptide after tail vein injection in Hep3B xenograft mouse; conditions: in vivo
# Source text: as §1
# [6] = test system: various cancer cell lines; assay: Cell growth inhibition in various cancer cell lines (MTT assay, GI50); type: cell-based
# MCF7 cells = conditions: ACP52C-treated MCF7 cells
# Hep3B xenograft = assay: Tumor growth inhibition in Hep3B xenograft mouse model; type: in vivo
# Procedure: In order to confirm the anticancer efficacy of ACP52CG and ACP52CK in vivo, following groups of treatment were performed […]; a negative control (saline; mock), a positive control (sorafenib, 10 mg/kg and ACP52C, 2 mg/kg), and an experimental group (ACP52CK, 5 mg/kg and ACP52CG, 5 mg/kg).
# MCF10A cells = conditions: electron microscopy
# human erythrocytes = assay: Hemolysis of erythrocytes; type: cell-based; conditions: pH 7.4, 8 hours
# Source text: as §1
# [7] = test system: MCF10A, a non-tumorigenetic breast epithelial cell line; conditions: FACS
# [8] = test system: normal human mesenchymal stem cells (hMSCs)
# Procedure: (§2) As an example thereof, FIG. 10 illustrates cell numbers at 48 hours and 96 hours after treatment of each drug at different concentrations in a breast cancer cell line (MDA-MB-231), normal human mesenchymal stem cells (hMSCs, LT18), and a non-tumorigenic lung cell line (BEAS-2B), cell growth inhibition graphs to get GI50 values, and representative photographs of cells.
# (§3) First, to test the effect of DHA itself, a breast cancer cell line (MDA-MB-231), liver cancer cell lines (Hep3B and HepG2), a normal hMSC cell line ([…]), and a non-tumorigenic lung cell line (BEAS-2B) were treated with DHA over concentrations, and then cell growth was analyzed by MTT assay.
# [9] = test system: non-tumorigenic lung cell line (BEAS-2B)
# Procedure: as §2, §3
# [10] = test system: breast cancer cell line (MDA-MB-231), liver cancer cell lines (Hep3B and HepG2); assay: Cell growth by MTT assay after DHA treatment of cancer cell lines; type: cell-based
# Procedure: First, to test the effect of DHA itself, a breast cancer cell line (MDA-MB-231), liver cancer cell lines (Hep3B and HepG2), a normal hMSC cell line (LA211), and a non-tumorigenic lung cell line (BEAS-2B) were treated with DHA over concentrations, and then cell growth was analyzed by MTT assay.
# [11] = test system: CP2c transcription factor complexes [CP2c homotetramer and the CBP (CP2c, CP2b, and PIAS1) heterohexamer]; assay: Interference with CP2c transcription factor complex formation and DNA binding; type: biochemical
# Source text: Since PEP #5-2 cannot enter cells by itself, in order to improve cell permeability of Pep #5-2, a cell-penetrating peptide (CPP), an internalizing RGD (iRGD) which is a peptide consisting of 9 amino acids (9aa) ‘Cys-Arg-Gly-Asp-Lys-Gly-Pro-Asp-Cys (CRGDKGPDC, SEQ ID NO: 3)’, was bound to the CP2c-targeting peptide and named it as ACP52C (FIG. 7).
# [12] = tail vein, 6 times at 3-day intervals, sorafenib 10 mg/kg, DHA-ACP52 1.65 mg/kg, DHA-ACP52C 2.79 mg/kg
molecule,measurement,setting,value
N=C(N)NCCC[C@@H]1NC(=O)[C@@H](NC(=O)[C@@H]2CCCN2C(=O)[C@H](CCCNC(=N)N)NC(=O)[C@H](CCC(N)=O)NC(=O)[C@@H]2CCCN2C(=O)[C@H](Cc2ccc(O)cc2)NC(=O)[C@@H](N)CC(N)=O)CSSC[C@@H](C(N)=O)NC(=O)[C@H](CC(=O)O)NC(=O)[C@@H]2CCCN2C(=O)CNC(=O)[C@H](CCCCN)NC(=O)[C@H](CC(=O)O)NC(=O)CNC1=O [ACP52C] (H-NYPQRPCRGDKGPDC-NH2; disulfide 7-15; N-terminus assumed),cell cycle changes,MDA-MB-231 cell line,"induced cell cycle arrest, increasing cells at G2/M and subG1 phases"
same,GI50,[1],2 µM
same,cell death induction via apoptosis,MDA-MB-231 cells,induced cell death via apoptosis
same,colony formation ability when CP2c is overexpressed,[2]; CP2c overexpression,the colony formation ability is suppressed more efficiently
same,colony formation ability,[2]; MDA-MB-231 and HepG2,efficiently suppressed the colony formation ability
same,time stable in serum (in vitro),[3],up to 24 hours
same,half-life,[4],120 min
same,half-life,[5],~477 min
same,effective concentration for cancer cell-specific cell death,[6],≤ 10 µM
same,cancer cell-specific growth suppression and cell death,[6]; various cancer cell lines,cancer cell-specific growth suppression and cell death efficacies
same,expression of Cdc2 (CDK1) and Cyclin B1,MCF7 cells,expression of Cdc2 (CDK1) and Cyclin B1 was decreased
same,anticancer effect (summary),Hep3B xenograft; injected by 3-day intervals,exhibited a significant anticancer effect when injected by 3-day intervals
same,anticancer effect (summary),Hep3B xenograft; injected by 5-day intervals,did not exhibit a significant anticancer effect when injected by 5-day intervals
same,characteristics of apoptosis (condensation of cell nuclei),MCF10A cells,not at all in MCF10A cells
same,hemolysis,human erythrocytes,Hemolysis was not appeared
same,cell cycle progression,[7],exerted no effect on cell cycle progression
"CC/C=C\C/C=C\C/C=C\C/C=C\C/C=C\C/C=C\CCC(=O)O [DHA, all-cis-docosa-4,7,10,13,16,19-hexa-enoic acid, reference compound]",cytotoxicity,[8],showed no cytotoxicity on the normal cell line
same,concentration showing cytotoxicity,[9]; human,≥ 20 µM
same,anticancer effect at a concentration of 10 μM or less,[10]; Hep3B and MDA-MB-231 cell lines,no anticancer effect was exhibited
same,concentration showing cytotoxicity,"[10]; cancer cells, MTT",≥ 20 µM
CC/C=C\C/C=C\C/C=C\C/C=C\C/C=C\C/C=C\CCC(=O)NCC(=O)NCC(=O)N[C@@H](CC(N)=O)C(=O)N[C@@H](Cc1ccc(O)cc1)C(=O)N1CCC[C@H]1C(=O)N[C@@H](CCC(N)=O)C(=O)N[C@@H](CCCNC(=N)N)C(=O)N1CCC[C@H]1C(N)=O [DHA-ACP52] (X1-GGNYPQRP-NH2),GI50,[1],5.7 to 6.95 µM
same,toxicity,[8],none of DHA-ACP52 and DHA-ACP52C showed toxicity
same,toxicity,[9],none of DHA-ACP52 and DHA-ACP52C showed toxicity
same,"tumor size, shape, and weight in sacrificed mice",Hep3B xenograft; [12],did not exhibit any effect
"CNC(=O)c1cc(Oc2ccc(NC(=O)Nc3ccc(Cl)c(C(F)(F)F)c3)cc2)ccn1 [sorafenib, reference compound]",tumor size measured once every 3 days during the experiment,Hep3B xenograft; [12],inhibited cancer growth more effectively than the group treated with mock or DHA-ACP52
same,"tumor size, shape, and weight in sacrificed mice",Hep3B xenograft; [12],significant anticancer efficacy compared to the mock
"NYPQRP(Asn-Try-Pro-Gln-Arg-Pro, SEQ ID NO: 2) (peptide for targeting CP2c) [PEP #5-2, CP2c-targeting peptide of 6 amino acids at the carboxyl terminus of PEP #5]",interference with DNA binding of the CP2c transcription factor complexes by suppressing complex formation,[11],showed the same effect as PEP #5
"PEP #5: peptide binding transcription factor CP2c, identified by the phage display method (YPQR; peptide for targeting CP2c)",interference with DNA binding of the CP2c transcription factor complexes by suppressing complex formation,[11],interferes with DNA binding of the CP2c transcription factor complexes

# Reference: US20230078718A1, “UNSATURATED FATTY ACID-CONJUGATED CP2C-TARGETING PEPTIDE-BASED ANTICANCER AGENT” (Industry-University Cooperation Foundation Hanyang …, priority 2020, published 2023)
